Measurements published in patent US9346815B2, “5-chloro-2-difluoromethoxyphenyl pyrazolopyrimidine compounds, compositions and methods of use thereof” (Genentech, Inc., priority 2014, dated 2016).
pEC50, pKi: −log10 of the molar value.

Tests used:
[1] = target: isolated recombinant JAK1 kinase domain (Homo sapiens (Human), UniProt P23458); experiment: JAK1 enzyme assay (Caliper LabChip, peptide phosphorylation); format: biochemical; settings: isolated recombinant JAK1 kinase domain, 25 μM ATP
[2] = target: isolated recombinant JAK2 kinase domain (Homo sapiens (Human), UniProt O60674); experiment: JAK2 enzyme assay (Caliper LabChip, peptide phosphorylation); format: biochemical; settings: 25 μM ATP
[3] = system: JAK1-dependent STAT6 phosphorylation downstream of IL-13 stimulation in TF-1 human erythroleukemia cells; experiment: JAK1 pathway assay in TF-1 cells (IL-13-pSTAT6, MSD); format: cell-based; settings: Homo sapiens, TF-1, TF-1 cells, read-out: IL13-pSTAT6 EC50_TF-1
Outline: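 BEAS-2B: 1 h, complete growth medium, 100,000 cells/well. TF-1: 30 min, serum-free OptiMEM after overnight GM-CSF starvation, 300,000 cells/well. EC50 reported.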

isolated recombinant JAK1 kinase domain, sequence (P23458 875-1153): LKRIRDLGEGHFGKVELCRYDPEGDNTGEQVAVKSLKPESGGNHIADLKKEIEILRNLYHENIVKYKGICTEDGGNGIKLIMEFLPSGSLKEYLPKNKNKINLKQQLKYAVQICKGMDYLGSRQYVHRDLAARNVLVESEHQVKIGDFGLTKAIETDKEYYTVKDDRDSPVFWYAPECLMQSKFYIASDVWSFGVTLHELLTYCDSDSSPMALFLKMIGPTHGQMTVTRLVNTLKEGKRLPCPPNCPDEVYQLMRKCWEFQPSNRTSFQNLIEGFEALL
isolated recombinant JAK2 kinase domain, sequence (O60674 849-1124): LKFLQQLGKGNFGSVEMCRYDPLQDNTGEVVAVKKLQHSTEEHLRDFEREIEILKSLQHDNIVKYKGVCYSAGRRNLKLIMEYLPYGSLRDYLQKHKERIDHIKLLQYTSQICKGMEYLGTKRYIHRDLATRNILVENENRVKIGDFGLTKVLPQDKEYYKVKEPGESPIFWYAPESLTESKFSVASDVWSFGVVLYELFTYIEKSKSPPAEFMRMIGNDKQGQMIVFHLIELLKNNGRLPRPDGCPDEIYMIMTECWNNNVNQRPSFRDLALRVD

Row | SMILES | pKi [1] | pKi [2] | pEC50 [3]
1 | CN(C)C1CCN(C(=O)Cn2cc(NC(=O)c3c(N)nn4cccnc34)c(-c3cc(Cl)ccc3OC(F)F)n2)C1 (stereo not drawn) [Example 136, 2-amino-N-[3-[5-chloro-2-(difluoromethoxy)phenyl]-1-[2-[3-(dimethylamino)pyrrolidin-1-yl]-2-oxo-ethyl]pyrazol-4-yl]pyrazolo[1,5-a]pyrimidine-3-carboxamide] | 9.19 | 9.60 | 7.44
2 | CN1CCC2(CC1)CN(C(=O)Cn1cc(NC(=O)c3cnn4cccnc34)c(-c3cc(Cl)ccc3OC(F)F)n1)C2 [Example 216, N-[3-[5-chloro-2-(difluoromethoxy)phenyl]-1-[2-(7-methyl-2,7-diazaspiro[3.5]nonan-2-yl)-2-oxo-ethyl]pyrazol-4-yl]pyrazolo[1,5-a]pyrimidine-3-carboxamide] | 8.95 | 8.74 | 7.90
3 | Nc1nn2cccnc2c1C(=O)Nc1cn(CC(=O)N2CCNCC2)nc1-c1cc(Cl)ccc1OC(F)F [Example 249, 2-amino-N-[3-[5-chloro-2-(difluoromethoxy)phenyl]-1-(2-oxo-2-piperazin-1-yl-ethyl)pyrazol-4-yl]pyrazolo[1,5-a]pyrimidine-3-carboxamide] | 9.14 | 9.36 | 7.49
4 | CN(C)C(=O)CCCN(C)C1CCN(C(=O)Cn2cc(NC(=O)c3cnn4cccnc34)c(-c3cc(Cl)ccc3OC(F)F)n2)CC1 [Example 88, N-[3-[5-chloro-2-(difluoromethoxy)phenyl]-1-[2-[4-[[4-(dimethylamino)-4-oxo-butyl]-methyl-amino]-1-piperidyl]-2-oxo-ethyl]pyrazol-4-yl]pyrazolo[1,5-a]pyrimidine-3-carboxamide] | 8.76 | 8.72 | 6.52
5 | O=C(Nc1cn(CC(=O)N2C[C@H]3CN(CC4(O)CCCCC4)C[C@H]3C2)nc1-c1cc(Cl)ccc1OC(F)F)c1cnn2cccnc12 [Example 46, N-[1-[2-[(3aS,6aR)-2-[(1-hydroxycyclohexyl)methyl]-1,3,3a,4,6,6a-hexahydropyrrolo[3,4-c]pyrrol-5-yl]-2-oxo-ethyl]-3-[5-chloro-2-(difluoromethoxy)phenyl]pyrazol-4-yl]pyrazolo[1,5-a]pyrimidine-3-carboxamide] | 9.24 | 9.15 | 8.09
6 | CN1CC[C@H]2CN(C(=O)Cn3cc(NC(=O)c4cnn5cccnc45)c(-c4cc(Cl)ccc4OC(F)F)n3)C[C@H]2C1 [Example 53, N-[1-[2-[(3aR,7aR)-5-methyl-3,3a,4,6,7,7a-hexahydro-1H-pyrrolo[3,4-c]pyridin-2-yl]-2-oxo-ethyl]-3-[5-chloro-2-(difluoromethoxy)phenyl]pyrazol-4-yl]pyrazolo[1,5-a]pyrimidine-3-carboxamide] | 9.21 | 8.91 | 7.96
7 | O=C(Nc1sc(N2CC(N3CCCCC3)C2)nc1-c1cc(Cl)ccc1OC(F)F)c1cnn2cccnc12 [Example 195, N-[4-[5-chloro-2-(difluoromethoxy)phenyl]-2-[3-(1-piperidyl)azetidin-1-yl]thiazol-5-yl]pyrazolo[1,5-a]pyrimidine-3-carboxamide] | 8.87 | 9.07 | 7.78
8 | CN(C)C1CCN(C(=O)Cn2cc(NC(=O)c3c(N)nn4cccnc34)c(-c3cc(Cl)ccc3OC(F)F)n2)CC1 [Example 139, 2-amino-N-[3-[5-chloro-2-(difluoromethoxy)phenyl]-1-[2-[4-(dimethylamino)-1-piperidyl]-2-oxo-ethyl]pyrazol-4-yl]pyrazolo[1,5-a]pyrimidine-3-carboxamide] | 9.11 | 9.44 | 7.40
9 | CN(CCC1CCCCC1)C1CCN(C(=O)Cn2cc(NC(=O)c3cnn4cccnc34)c(-c3cc(Cl)ccc3OC(F)F)n2)CC1 [Example 101, N-[3-[5-chloro-2-(difluoromethoxy)phenyl]-1-[2-[4-[2-cyclohexyl-ethyl(methyl)amino]-1-piperidyl]-2-oxo-ethyl]pyrazol-4-yl]pyrazolo[1,5-a]pyrimidine-3-carboxamide] | 9.17 | 8.75 | 7.78
10 | CN1CCC2(CC1)CCN(C(=O)Cn1cc(NC(=O)c3cnn4cccnc34)c(-c3cc(Cl)ccc3OC(F)F)n1)C2 [Example 222, N-[3-[5-chloro-2-(difluoromethoxy)phenyl]-1-[2-(8-methyl-2,8-diazaspiro[4.5]decan-2-yl)-2-oxo-ethyl]pyrazol-4-yl]pyrazolo[1,5-a]pyrimidine-3-carboxamide] | 9.27 | 8.80 | 7.54
11 | O=C(Nc1cn(CC(=O)N2CCC(NCCc3ccccc3)CC2)nc1-c1cc(Cl)ccc1OC(F)F)c1cnn2cccnc12 [Example 89, N-[3-[5-chloro-2-(difluoromethoxy)phenyl]-1-[2-oxo-2-[4-(2-phenylethylamino)-1-piperidyl]ethyl]pyrazol-4-yl]pyrazolo[1,5-a]pyrimidine-3-carboxamide] | 9.06 | 8.84 | 7.64
12 | CN1CC[C@@H](n2cc(NC(=O)c3c(N)nn4cccnc34)c(-c3cc(Cl)ccc3OC(F)F)n2)C1 [Example 183, 2-amino-N-[3-[5-chloro-2-(difluoromethoxy)phenyl]-1-[(3R)-1-methylpyrrolidin-3-yl]pyrazol-4-yl]pyrazolo[1,5-a]pyrimidine-3-carboxamide] | 9.31 | 9.64 | 8.17
13 | CN1CCC2CN(C(=O)Cn3cc(NC(=O)c4cnn5cccnc45)c(-c4cc(Cl)ccc4OC(F)F)n3)CCC21 (stereo not drawn) [Example 29, N-[3-[5-chloro-2-(difluoromethoxy)phenyl]-1-[2-(1-methyl-3,3a,4,6,7,7a-hexahydro-2H-pyrrolo[3,2-c]pyridin-5-yl)-2-oxo-ethyl]pyrazol-4-yl]pyrazolo[1,5-a]pyrimidine-3-carboxamide] | 9.00 | 8.75 | 8.25
14 | CN(Cc1ccc(Cl)c(Cl)c1)C1CCN(C(=O)Cn2cc(NC(=O)c3cnn4cccnc34)c(-c3cc(Cl)ccc3OC(F)F)n2)CC1 [Example 121, N-[3-[5-chloro-2-(difluoromethoxy)phenyl]-1-[2-[4-[(3,4-dichlorophenyl)methyl-methyl-amino]-1-piperidyl]-2-oxo-ethyl]pyrazol-4-yl]pyrazolo[1,5-a]pyrimidine-3-carboxamide] | 9.62 | 9.51 | 6.85
15 | CCCCOc1ccc(CN(C)C2CCN(C(=O)Cn3cc(NC(=O)c4cnn5cccnc45)c(-c4cc(Cl)ccc4OC(F)F)n3)CC2)cc1 [Example 127, N-[1-[2-[4-[(4-butoxyphenyl)methyl-methyl-amino]-1-piperidyl]-2-oxo-ethyl]-3-[5-chloro-2-(difluoromethoxy)phenyl]pyrazol-4-yl]pyrazolo[1,5-a]pyrimidine-3-carboxamide] | 9.11 | 8.61 | 7.14
16 | O=C(Nc1cn(CC(=O)N2C[C@H]3CN(CCCOC(=O)N4CCOCC4)C[C@H]3C2)nc1-c1cc(Cl)ccc1OC(F)F)c1cnn2cccnc12 [Example 51, 3-[(3aR,6aS)-5-[2-[3-[5-chloro-2-(difluoromethoxy)phenyl]-4-(pyrazolo[1,5-a]pyrimidine-3-carbonylamino)pyrazol-1-yl]acetyl]-1,3,3a,4,6,6a-hexahydropyrrolo[3,4-c]pyrrol-2-yl]propyl morpholine-4-carboxylate] | 8.96 | 8.97 | 7.11
